Legend:
[1] = test system: PANK2 silenced human neuroblastoma IMR32 cells (PANK2−/−); assay: Coenzyme A assay in PANK2 silenced cells (LC-MS quantification of free CoA); format: cell-based; conditions: compound added twice (24 h + 24 h), relative to 0.1% DMSO controls
Method in brief: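 PANK2 shRNA-silenced IMR32 neuroblastoma cells were treated with compound (0.1% DMSO) for 24 h, then re-dosed with fresh compound for a further 24 h at 37 °C. TFA extracts of 1×10^6 cells were assayed for free CoA by LC-MS/MS (MRM 768.1→261.6/136.1). Results are given as fold change versus DMSO controls.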

[2] = Stability in mouse plasma; format: in vitro ADME
Experimental: (§1) Compounds and positive control samples were dissolved in 100% DMSO at 3 mM. To investigate the stability of the test compounds in plasma, samples were made by diluting test compounds into plasma from the stock solutions to obtain a test compound concentration of 3 μM (0.1% DMSO). Before addition of a test compound, 990 μl of plasma were preincubated at 37° C. for 5 min in eppendorf. After addition of a test compound, 70 μl for each time point were transferred to a 96-deepwell plate, previously warmed at 37° C. in a DUBNOFF water bath. Each compound was tested at five time points, in duplicate (10, 20, 30, 40 and 60 min). At each time point, an aliquot of 50 μl was taken and transferred to a new 96-deepwell plate, and the reaction was stopped with 200 μl of 100% acetonitrile containing 0.1% formic acid and the appropriate internal standard. Then samples were centrifuged at 1100×g for 30 min at +4° C. and supernatants were transferred to a new 96-deepwell plate. Samples were evaporated under N2 and reconstituted in H2O/ACN 0.1% Formic Acid (98:2). Analysis was performed without a calibration curve (Acquity UPLC-Waters; SciexAPI4000). Time 0 was obtained by adding acetonitrile before addition of the test compound.

[3] = Stability in human plasma; format: in vitro ADME; conditions: 37° C.
Experimental: as §1

[4] = human, plasma, Diastereoisomer A (upfield shift in 31P NMR), read-out: t1/2, Human Plasma, Diastereoisomer A (converted)
[5] = human, plasma, Diastereoisomer B, read-out: t1/2, Human Plasma, Diastereoisomer B (converted)

| Compound | half-life at 3 µM ([2]; mouse, plasma) [min] | t1/2, Mouse Plasma, Diastereoisomer B ([2]; mouse, plasma, 3 µM) [min] | half-life at 3 µM [3, 4] [min] | half-life at 3 µM [3, 5] [min] | PANK2−/− CoA (Fold Increase): fold increase in Coenzyme A (CoA) levels relative to controls [1] [Fold Increase] | half-life at 3 µM ([2]; Diastereoisomer A (upfield shift in 31P NMR), 3 μM, 37° C., mouse plasma, read-out: t1/2, Mouse Plasma, Diastereoisomer A) [min] | t1/2, Mouse Plasma, Diastereoisomer B ([2]; Diastereoisomer B, 3 μM, 37° C., mouse plasma) [min] | half-life at 3 µM ([3]; Diastereoisomer A (upfield shift in 31P NMR), read-out: t1/2, Human Plasma, Diastereoisomer A (converted)) [min] | t1/2, Human Plasma, Diastereoisomer B ([3]; Diastereoisomer B, 3 μM) [min] |
| --- | --- | --- | --- | --- | --- | --- | --- | --- | --- |
| CC(C)(C)C(=O)OCO[P@@]1(=O)OCC(C)(C)[C@H](C(=O)NCCC(=O)OCCc2ccccn2)O1 (single isomer, unassigned) [Compound No. 82] | < 9.6 |  | 28.8 |  | 99.82 |  |  |  |  |
| COC(=O)CCNC(=O)[C@@H]1OP(=O)(OCOC(=O)CN2CCN(C(C)=O)CC2)OCC1(C)C (stereo partly drawn) [compound 80, methyl 3-((4R)-2-((2-(4-acetylpiperazin-1-yl)acetoxy)methoxy)-5,5-dimethyl-2-oxido-1,3,2-dioxaphosphinane-4-carboxamido)propanoate] | < 9.6 |  | 40.2 |  | 1.48 |  |  |  |  |
| CC(C)(C)OC(=O)CCNC(=O)[C@@H]1OP(=O)(OCOC(=O)C(C)(C)C)OCC1(C)C (stereo partly drawn) [Compound No. 75, (((4R)-4-((3-(tert-butoxy)-3-oxopropyl)carbamoyl)-5,5-dimethyl-2-oxido-1,3,2-dioxaphosphinan-2-yl)oxy)methyl pivalate] | < 9.6 | <9.6 | > 60 | < 9.6 | 1.52 |  |  |  |  |
| COC(=O)CCNC(=O)[C@@H]1OP(=O)(OCOC(=O)c2ccncc2)OCC1(C)C (stereo partly drawn) [Compound No. 72, (((4R)-4-((3-methoxy-3-oxopropyl)carbamoyl)-5,5-dimethyl-2-oxido-1,3,2-dioxaphosphinan-2-yl)oxy)methyl isonicotinate] | < 9.6 | <9.6 | < 9.6 | < 9.6 | 34.64 |  |  |  |  |
| COC(=O)CCNC(=O)[C@@H]1OP(=O)(N[C@@H](Cc2cccnc2)C(=O)OCc2ccccc2)OCC1(C)C (stereo partly drawn) [compound 30, (2S)-benzyl 2-(((4R)-4-((3-methoxy-3-oxopropyl)carbamoyl)-5,5-dimethyl-2-oxido-1,3,2-dioxaphosphinan-2-yl)amino)-3-(pyridin-3-yl)propanoate] | < 9.6 | <9.6 | 49.8 | > 60 | 0.93 |  |  |  |  |
| COC(=O)CCNC(=O)[C@@H]1OP(=O)(NCCc2ccc(F)cc2)OCC1(C)C (stereo partly drawn) [compound 129, methyl 3-((4R)-2-((4-fluorophenethyl)amino)-5,5-dimethyl-2-oxido-1,3,2-dioxaphosphinane-4-carboxamido)propanoate] |  |  |  |  | 0.9 | < 9.6 | <9.6 | > 60 | >60 |
| CC(C)(C)C(=O)OCO[P@@]1(=O)OCC(C)(C)[C@H](C(=O)NCCC(=O)OC2CCN(Cc3ccccc3)C2)O1 (stereo partly drawn) [Compound No. 93, (((2S,4R)-4-((3-((1-benzylpyrrolidin-3-yl)oxy)-3-oxopropyl)carbamoyl)-5,5-dimethyl-2-oxido-1,3,2-dioxaphosphinan-2-yl)oxy)methyl pivalate] | < 9.6 |  | > 60 |  | 206.8 |  |  |  |  |
| CN1CCCC(OC(=O)CCNC(=O)[C@@H]2OP(=O)(OCOC(=O)C(C)(C)C)OCC2(C)C)C1 (stereo partly drawn) [Compound No. 99, (((4R)-5,5-dimethyl-4-((3-((1-methylpiperidin-3-yl)oxy)-3-oxopropyl)carbamoyl)-2-oxido-1,3,2-dioxaphosphinan-2-yl)oxy)methyl pivalate] |  |  | 39.6 |  | 10.44 |  |  |  |  |
| COC(=O)CCNC(=O)[C@@H]1OP(=O)(OCOC(=O)C(C)C)OCC1(C)C (stereo partly drawn) [Compound No. 103, (((4R)-4-((3-methoxy-3-oxopropyl)carbamoyl)-5,5-dimethyl-2-oxido-1,3,2-dioxaphosphinan-2-yl)oxy)methyl isobutyrate] |  |  | < 9.6 | < 9.6 | 105.8 |  |  |  |  |

Now from value to compound, other results behind:

| half-life at 3 µM ([2]; mouse, plasma) [min] | t1/2, Mouse Plasma, Diastereoisomer B ([2]; mouse, plasma, 3 µM) [min] | half-life at 3 µM [3, 4] [min] | half-life at 3 µM [3, 5] [min] | Compound | PANK2−/− CoA (Fold Increase): fold increase in Coenzyme A (CoA) levels relative to controls [1] [Fold Increase] | half-life at 3 µM ([2]; Diastereoisomer A (upfield shift in 31P NMR), 3 μM, 37° C., mouse plasma, read-out: t1/2, Mouse Plasma, Diastereoisomer A) [min] | t1/2, Mouse Plasma, Diastereoisomer B ([2]; Diastereoisomer B, 3 μM, 37° C., mouse plasma) [min] | half-life at 3 µM ([3]; Diastereoisomer A (upfield shift in 31P NMR), read-out: t1/2, Human Plasma, Diastereoisomer A (converted)) [min] | t1/2, Human Plasma, Diastereoisomer B ([3]; Diastereoisomer B, 3 μM) [min] |
| --- | --- | --- | --- | --- | --- | --- | --- | --- | --- |
| < 9.6 | <9.6 | > 60 | > 60 | C[C@H](NP1(=O)OCC(C)(C)[C@H](C(=O)NCCC(=O)OC(C)(C)C)O1)C(=O)OCCc1ccccc1 (stereo partly drawn) [compound 33, tert-butyl 3-((4R)-5,5-dimethyl-2-oxido-2-(((S)-1-oxo-1-phenethoxypropan-2-yl)amino)-1,3,2-dioxaphosphinane-4-carboxamido)propanoate] | 0.8 |  |  |  |  |
| 12 |  | > 60 |  | C[C@H](NP1(=O)OCC(C)(C)[C@H](C(=O)NCCC(=O)O)O1)C(=O)OCCc1ccccc1 (stereo partly drawn) [compound 41, 3-((4R)-5,5-dimethyl-2-oxido-2-(((S)-1-oxo-1-phenethoxypropan-2-yl)amino)-1,3,2-dioxaphosphinane-4-carboxamido)propanoic acid] | 2.02 |  |  |  |  |
| < 9.6 | <9.6 | > 60 | > 60 | C[C@H](NP1(=O)OCC(C)(C)[C@H](C(=O)NCCC(=O)OCc2cnccn2)O1)C(=O)OCCc1ccccc1 (stereo partly drawn) [compound 39, phenethyl ((4R)-5,5-dimethyl-2-oxido-4-((3-oxo-3-(pyrazin-2-ylmethoxy)propyl)carbamoyl)-1,3,2-dioxaphosphinan-2-yl)-L-alaninate] | 2.18 |  |  |  |  |
| < 9.6 | <9.6 | > 60 | > 60 | COC(=O)CCNC(=O)[C@@H]1OP(=O)(N[C@@H](C)C(=O)OCCc2scnc2C)OCC1(C)C (stereo partly drawn) [compound 31, methyl 3-((4R)-5,5-dimethyl-2-(((S)-1-(2-(4-methylthiazol-5-yl)ethoxy)-1-oxopropan-2-yl)amino)-2-oxido-1,3,2-dioxaphosphinane-4-carboxamido)propanoate] | 1.1 |  |  |  |  |
|  |  | > 60 |  | COC(=O)CCNC(=O)[C@@H]1OP(=O)(N[C@@H](C)C(=O)OCCc2ccccc2)OCC1(C)C (stereo in doubt) [compound 48, methyl 3-((2R,4R)-5,5-dimethyl-2-oxido-2-(((S)-1-oxo-1-phenethoxypropan-2-yl)amino)-1,3,2-dioxaphosphinane-4-carboxamido)propanoate] | 2.16 |  |  |  |  |
|  |  | > 60 |  | C[C@H](NP1(=O)OCC(C)(C)[C@H](C(=O)NCCC(=O)OC[C@H]2CCC(=O)N2)O1)C(=O)OCCc1ccccc1 (stereo partly drawn) [compound 47, ((R)-5-oxopyrrolidin-2-yl)methyl 3-((4R)-5,5-dimethyl-2-oxido-2-(((S)-1-oxo-1-phenethoxypropan-2-yl)amino)-1,3,2-dioxaphosphinane-4-carboxamido)propanoate] | 1.38 |  |  |  |  |

From patent US10364263B2, “Cyclic phosphates and cyclic phosphoramidates for the treatment of neurologic disorders” (Retrophin, Inc., priority 2015, dated 2019)
